Reference: US12102637B2, “Pharmaceutical formulations for treating endometriosis, uterine fibroids, polycystic ovary syndrome or adenomyosis” (AbbVie Inc., priority 2017, dated 2024)

Legend:
[1] = Compound A solubility experiment in water at 37° C. (gel formation); type: physicochemical
Procedure: The dotted line in FIG. 2 is the theoretical concentration based on the weights of the solids added and the volume of water. […] Deviation of the concentrations from the theoretical line is due to the volume expansion upon dissolution of large amount of solutes. Beyond that, the concentrations deviate from the theoretical line, but the solution is still clear and no visible gelling was observed. When more than 500 mg of Compound A solid was added, visible gelling was observed, therefore, concentrations were not determined.

[2] = system: premenopausal women with HMB, uterine fibroids and adenomyosis; assay: Phase 2b trial in women with HMB and uterine fibroids, subgroup with non-dominant adenomyosis; type: in vivo, human
Procedure: Patients and Methods: […] Elagolix studied in this clinical trial comprised the sodium salt of Compound A. All subjects were evaluated with ultrasound and a subset volunteered to also be evaluated by MRI. […] Efficacy and safety were evaluated post hoc in a subgroup of women who had confirmed non-dominant adenomyosis (ultrasound/MRI) at baseline. Menstrual blood loss (MBL) was quantified from sanitary products (alkaline hematin). […] Adverse events (AEs) were recorded.

[3] = system: luteinizing hormone (LH) and follicle-stimulating hormone (FSH); assay: Suppression of LH and FSH levels; type: in vivo, human; conditions: begins within hours of administration, reversible upon discontinuation
Source text: (I) Elagolix is an orally administered, short-acting, selective, non-peptide small molecule GnRH receptor antagonist that blocks endogenous GnRH signaling by binding competitively to GnRH receptors in the pituitary gland. […] LH and FSH suppression begins within hours of administration and is readily reversible upon discontinuation of elagolix.

[4] = target: efflux transporter P-glycoprotein (P-gp) (Homo sapiens, UniProt P08183); assay: Elagolix as inhibitor and substrate of P-gp
Chain of efflux transporter P-glycoprotein (P-gp) (P08183 whole entry): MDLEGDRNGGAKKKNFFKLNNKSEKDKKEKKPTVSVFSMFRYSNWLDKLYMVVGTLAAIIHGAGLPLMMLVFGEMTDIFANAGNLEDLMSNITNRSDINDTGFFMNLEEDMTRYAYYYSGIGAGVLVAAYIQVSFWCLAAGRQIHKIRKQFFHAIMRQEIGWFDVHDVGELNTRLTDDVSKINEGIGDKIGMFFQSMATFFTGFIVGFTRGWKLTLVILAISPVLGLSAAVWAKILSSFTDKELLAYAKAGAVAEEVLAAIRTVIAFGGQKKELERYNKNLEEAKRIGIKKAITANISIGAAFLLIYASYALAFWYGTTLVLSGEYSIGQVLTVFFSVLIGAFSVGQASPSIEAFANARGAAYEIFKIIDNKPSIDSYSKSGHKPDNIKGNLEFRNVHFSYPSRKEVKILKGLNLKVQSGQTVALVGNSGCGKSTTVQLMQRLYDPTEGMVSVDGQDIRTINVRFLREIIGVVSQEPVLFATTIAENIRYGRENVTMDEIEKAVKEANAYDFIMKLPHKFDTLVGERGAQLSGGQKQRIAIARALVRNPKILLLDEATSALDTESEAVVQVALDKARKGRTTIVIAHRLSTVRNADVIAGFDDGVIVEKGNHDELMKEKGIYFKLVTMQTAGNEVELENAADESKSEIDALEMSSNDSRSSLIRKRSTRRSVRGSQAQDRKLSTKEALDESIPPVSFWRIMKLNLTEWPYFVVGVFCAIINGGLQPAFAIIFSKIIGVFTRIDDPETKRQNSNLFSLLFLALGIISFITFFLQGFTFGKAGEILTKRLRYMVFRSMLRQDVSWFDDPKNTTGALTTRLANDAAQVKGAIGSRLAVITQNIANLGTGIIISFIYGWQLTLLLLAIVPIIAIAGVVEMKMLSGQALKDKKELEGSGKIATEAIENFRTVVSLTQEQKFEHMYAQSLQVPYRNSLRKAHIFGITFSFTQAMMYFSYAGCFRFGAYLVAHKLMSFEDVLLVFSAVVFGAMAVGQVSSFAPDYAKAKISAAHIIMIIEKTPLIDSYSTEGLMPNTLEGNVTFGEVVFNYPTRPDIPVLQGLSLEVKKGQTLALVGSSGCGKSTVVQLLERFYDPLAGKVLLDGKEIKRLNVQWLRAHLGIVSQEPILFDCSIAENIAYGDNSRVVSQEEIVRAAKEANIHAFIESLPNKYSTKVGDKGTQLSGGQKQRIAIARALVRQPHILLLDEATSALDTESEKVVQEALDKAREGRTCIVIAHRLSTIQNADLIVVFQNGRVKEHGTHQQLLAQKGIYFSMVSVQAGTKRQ
Procedure: Elagolix is an inhibitor of efflux transporter P-glycoprotein (P-gp) at 200 mg BID or higher, such as 300 mg BID or 400 mg QD or 600 mg QD. Co-administration with ELAGOLIX 200 mg BID may increase plasma concentration of drugs that are substrates of P-gp.
Elagolix is a substrate of CYP3A, P-gp, and organic anion transporting polypeptide (OATP)1B1. Clinically meaningful interactions are not expected when elagolix is co-administered with drugs that inhibit CYP3A or P-gp.

[5] = system: monkeys; assay: Repeat-dose study in monkeys (reproductive organs); type: in vivo, monkey; conditions: monkeys, 75, 150, 300 and 600 mg/kg/day, all doses
Source text: Based on pharmacologic actions of elagolix in humans a reversible effect on fertility may be expected in women.

[6] = system: premenopausal women with endometriosis with associated pain; assay: Rescue analgesic (opioid, naproxen) use in EM-I and EM-II; type: in vivo, human
Procedure: These effects were less consistently observed for women taking elagolix 150 mg QD. […] Reduction in pain may be reflected by reduction in pain medication, such as prescription opioids or non-steroidal anti-inflammatory agents (NSAIDs) that may be prescribed or found over the counter, for example, naproxen or acetaminophen. […] In this pooled analysis of rescue analgesic use in two phase 3 trials, compared with placebo: […] […] In EM-1 and EM-2, 59% and 60% of patients used an opioid rescue analgesic for pain at baseline. The opioid rescue analgesics used at baseline were predominantly hydrocodone/acetaminophen (HC/APAP) and codeine/APAP at strengths of 5/300-325 mg and 30/300-500 mg. In EM-1, of all patients on an opioid at baseline, 98% and 2% were on HC/APAP and codeine/APAP, respectively. In EM-2, of all patients on an opioid at baseline, 50% were on HC/APAP, 16% were on codeine/APAP, 3% were on codeine, and 32% were on tramadol/APAP.

[7] = system: menstrual bleeding; assay: Effects on menstrual bleeding patterns (electronic daily diary; bleeding/spotting days, intensity, amenorrhea, resumption of menses); type: in vivo, human; conditions: for Mean bleeding/spotting days in prior 28 days / Mean Intensity score: Baseline; for Mean Intensity score: scale 1 to 4 (1 = spotting, 4 = heavy), subjects with at least 1 day of bleeding or spotting in 28 day interval
[8] = system: endometrium; assay: Endometrial biopsies in Study EM-I and its extension; type: in vivo, human; conditions: Month 6 and Month 12
Procedure: Endometrial biopsies were performed in subjects in Study EM-I and its extension at Month 6 and Month 12.

COc1cccc(-c2c(C)n(Cc3c(F)cccc3C(F)(F)F)c(=O)n(C[C@H](NCCCC(=O)O)c3ccccc3)c2=O)c1F [Compound A, 4-((R)-2-[5-(2-fluoro-3-methoxy-phenyl)-3-(2-fluoro-6-trifluoromethyl-benzyl)-4-methyl-2,6-dioxo-3,6-dihydro-2H-pyrimidin-1-yl]-1-phenyl-ethylamino)-butyric acid]
Final pH ([1]; 12.2 mg added to 1.5 mL water): 9.66 | Measured Concentration ([1]; 12.2 mg added to 1.5 mL water): 7.45 mg/mL | Observation ([1]; 12.2 mg added to 1.5 mL water): Clear solution | Final pH ([1]; 28.7 mg added to 1.5 mL water): 9.96 | Measured Concentration ([1]; 28.7 mg added to 1.5 mL water): 17.3 mg/mL | Observation ([1]; 28.7 mg added to 1.5 mL water): Clear solution | Final pH ([1]; 49.8 mg added to 1.5 mL water): 10.10 | Measured Concentration ([1]; 49.8 mg added to 1.5 mL water): 28.0 mg/mL | Observation ([1]; 49.8 mg added to 1.5 mL water): Clear solution | Final pH ([1]; 100.4 mg added to 1.5 mL water): 10.16 | Measured Concentration ([1]; 100.4 mg added to 1.5 mL water): 60.8 mg/mL | Observation ([1]; 100.4 mg added to 1.5 mL water): Clear solution | Final pH ([1]; 202.5 mg added to 1.5 mL water): 10.18 | Measured Concentration ([1]; 202.5 mg added to 1.5 mL water): 111 mg/mL | Observation ([1]; 202.5 mg added to 1.5 mL water): Clear solution | Final pH ([1]; 295.6 mg added to 1.5 mL water): 10.20 | Measured Concentration ([1]; 295.6 mg added to 1.5 mL water): 149 mg/mL | Observation ([1]; 295.6 mg added to 1.5 mL water): Clear solution | Final pH ([1]; 503.2 mg added to 1.5 mL water): 10.17 | Measured Concentration ([1]; 503.2 mg added to 1.5 mL water): 170 mg/mL | Observation ([1]; 503.2 mg added to 1.5 mL water): Clear solution | Observation ([1]; 700.9 mg added to 1.5 mL water): Gel formation | Observation ([1]; 990.0 mg added to 1.5 mL water): Gel formation | proportion of women with ≥50% reduction from baseline in HMB and <80 mL MBL in the last 28 days of treatment ([2]; Cohort 1, elagolix 300 mg BID with 0.5 mg E2/0.1 mg NETA (n=12)): 83% | proportion of women with ≥50% reduction from baseline in HMB and <80 mL MBL in the last 28 days of treatment ([2]; Cohort 1, elagolix 300 mg BID with 1.0 mg E2/0.5 mg NETA (n=5)): 100% | proportion of women with ≥50% reduction from baseline in HMB and <80 mL MBL in the last 28 days of treatment ([2]; Cohort 2, elagolix 600 mg QD with 0.5 mg E2/0.1 mg NETA (n=14)): 93% | proportion of women with ≥50% reduction from baseline in HMB and <80 mL MBL in the last 28 days of treatment ([2]; Cohort 2, elagolix 600 mg QD with 1.0 mg E2/0.5 mg NETA (n=9)): 89% | At least 1 AE, related or unrelated to study drug ([2]; elagolix-treated groups (n=22) in Cohort 1): 77% | At least 1 AE, related or unrelated to study drug ([2]; elagolix-treated groups (n=38) in Cohort 2): 67% | LH and FSH levels [3]: dose-dependent suppression | substrate of P-gp [4]: substrate | inhibition of efflux transporter P-glycoprotein (P-gp) ([4]; at 200 mg BID or higher): inhibitor | reproductive organ findings in repeat-dose study [5]: reversible atrophy of reproductive organs (cervix, uterus and vagina) | amount of opioid or naproxen rescue medication used vs baseline ([6]; 200 mg BID): reduced the amount of opioid (hydrocodone with acetaminophen) or naproxen rescue medication | mean percent daily rescue opioid pill counts ([6]; pooled analysis, 200 mg BID, vs placebo): significant reduction in the mean percent daily pill counts | percentage of days in which rescue opioid medication was taken ([6]; pooled analysis, both doses 150 QD and 200 BID, vs placebo): significant reduction in the percentage of days in which rescue opioid medication was taken | Mean bleeding/spotting days in prior 28 days ([7]; Elagolix 150 mg Once Daily): 5.3 days | Mean Intensity score ([7]; Elagolix 150 mg Once Daily): 2.6 | Mean bleeding/spotting days in prior 28 days ([7]; Elagolix 200 mg Twice Daily): 5.7 days | Mean Intensity score ([7]; Elagolix 200 mg Twice Daily): 2.5 | incidence of amenorrhea ([7]; first six months of treatment, 150 mg once daily): 6-17% | incidence of amenorrhea ([7]; first six months of treatment, 200 mg twice daily): 13-52% | incidence of amenorrhea ([7]; second 6 months of treatment, 150 mg once daily): 11-15% | incidence of amenorrhea ([7]; second 6 months of treatment, 200 mg twice daily): 46-57% | bleeding and spotting days and bleeding intensity ([7]; up to 12 months, subjects who reported menstrual bleeding): dose-dependent reduction in mean number of bleeding and spotting days and bleeding intensity | endometrial biopsy findings [8]: no abnormal biopsy findings post-baseline
